{"source": "BindingDB's records for patent US20250145589", "about": "(Sichuan Huiyu Pharmaceutical, 2025)", "key": {"[1]": {"biological_target": "Son of sevenless homolog 1/GTPase KRas [G12C] (Homo sapiens, UniProt P01116, G12C)", "sequence (P01116 whole entry G12C)": "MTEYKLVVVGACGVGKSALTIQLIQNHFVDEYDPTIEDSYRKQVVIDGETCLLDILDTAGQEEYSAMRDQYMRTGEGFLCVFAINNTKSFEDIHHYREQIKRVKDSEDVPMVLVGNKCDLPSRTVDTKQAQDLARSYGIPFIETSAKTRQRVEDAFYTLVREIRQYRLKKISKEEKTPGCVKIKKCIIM", "sequence (Q07889 whole entry, further chain)": "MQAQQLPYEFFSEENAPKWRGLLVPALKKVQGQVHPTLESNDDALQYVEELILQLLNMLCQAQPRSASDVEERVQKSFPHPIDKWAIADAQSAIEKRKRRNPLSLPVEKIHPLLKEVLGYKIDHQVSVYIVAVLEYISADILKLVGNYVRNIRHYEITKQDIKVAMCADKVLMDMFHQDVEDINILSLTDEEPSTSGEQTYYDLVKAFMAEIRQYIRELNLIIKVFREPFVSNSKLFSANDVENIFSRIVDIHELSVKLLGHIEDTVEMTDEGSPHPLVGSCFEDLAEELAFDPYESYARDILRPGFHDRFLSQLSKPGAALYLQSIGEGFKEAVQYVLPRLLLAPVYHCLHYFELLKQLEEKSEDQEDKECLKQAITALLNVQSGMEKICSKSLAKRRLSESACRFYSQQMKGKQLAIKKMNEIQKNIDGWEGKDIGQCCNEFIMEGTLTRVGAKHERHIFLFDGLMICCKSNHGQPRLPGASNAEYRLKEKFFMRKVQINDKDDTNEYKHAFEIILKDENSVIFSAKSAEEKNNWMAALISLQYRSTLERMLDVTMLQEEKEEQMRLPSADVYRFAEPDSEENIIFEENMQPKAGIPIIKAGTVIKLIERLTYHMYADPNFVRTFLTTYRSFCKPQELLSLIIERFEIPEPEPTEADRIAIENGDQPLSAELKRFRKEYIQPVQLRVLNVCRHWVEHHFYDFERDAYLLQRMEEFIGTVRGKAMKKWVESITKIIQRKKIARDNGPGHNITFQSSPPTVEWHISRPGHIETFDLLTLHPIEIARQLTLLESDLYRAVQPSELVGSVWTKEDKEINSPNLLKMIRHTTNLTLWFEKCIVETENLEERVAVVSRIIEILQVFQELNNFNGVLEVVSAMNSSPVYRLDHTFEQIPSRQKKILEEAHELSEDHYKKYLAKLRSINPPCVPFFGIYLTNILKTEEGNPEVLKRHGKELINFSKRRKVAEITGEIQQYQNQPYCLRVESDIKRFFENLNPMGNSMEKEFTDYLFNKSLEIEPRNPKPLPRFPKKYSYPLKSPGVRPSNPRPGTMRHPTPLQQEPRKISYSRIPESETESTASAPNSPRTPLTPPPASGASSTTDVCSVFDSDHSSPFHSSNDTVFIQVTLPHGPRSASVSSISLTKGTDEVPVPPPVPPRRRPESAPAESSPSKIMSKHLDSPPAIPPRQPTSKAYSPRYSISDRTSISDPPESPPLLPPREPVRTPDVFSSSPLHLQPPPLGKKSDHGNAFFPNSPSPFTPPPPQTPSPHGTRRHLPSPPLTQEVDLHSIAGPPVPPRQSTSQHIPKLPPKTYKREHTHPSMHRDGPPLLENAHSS", "assay": "HTRF KRASG12C/SOS1 Binding Assay", "description": "The HTRF KRASG12C/SOS1 Binding Assay was used to measure the interaction between KRASG12C and SOS1 proteins, and evaluate the enzymatic activity of compounds against KRASG12C. The utilized proteins and assay reagents were obtained from the KRASG12C-SOS1 binding assay kits (Cisbio). Initially, a 2 mM stock solution of the test compound (dissolved in DMSO) was serially diluted in five-fold concentrations using DMSO to obtain eight working solutions 1 (200×). Subsequently, each of the eight working solutions 1 was further diluted in a 20-fold gradient by adding 5 μL into 95 μL of Diluent buffer, mixed completely with vortex mixer, resulting in eight working solutions 2 (10×). In a 384-well white flat-bottom plate, 4 μL of Tag2-KRASG12C solution, 2 μL of working solution 2 (10×) and 4 μL of Tag1-SOS1 solution were sequentially added to each well and mixed, followed by a 15-minute incubation at room temperature (RT). Subsequently, 5 μL of Anti-tag 1-Tb3+ stock solution and 5 μL of Anti-tag2-XL665 were added to each well, mixed, and incubated at 4° C. for 3 hours. […] The inhibition rate was calculated using the following formula:%Inhibitionrate= [(Rationegative-Ratiocompound)/(Rationegative-RatioBlank)]×100Data were analyzed using GraphPad Prism with log (inhibitor) vs. response-Variable Slope (four parameters) fitting calculations for IC50 values."}, "[2]": {"biological_target": "Phosphatidylinositol 4,5-bisphosphate 3-kinase catalytic subunit alpha isoform (Homo sapiens, UniProt P42336)", "sequence (P42336 whole entry, canonical isoform)": "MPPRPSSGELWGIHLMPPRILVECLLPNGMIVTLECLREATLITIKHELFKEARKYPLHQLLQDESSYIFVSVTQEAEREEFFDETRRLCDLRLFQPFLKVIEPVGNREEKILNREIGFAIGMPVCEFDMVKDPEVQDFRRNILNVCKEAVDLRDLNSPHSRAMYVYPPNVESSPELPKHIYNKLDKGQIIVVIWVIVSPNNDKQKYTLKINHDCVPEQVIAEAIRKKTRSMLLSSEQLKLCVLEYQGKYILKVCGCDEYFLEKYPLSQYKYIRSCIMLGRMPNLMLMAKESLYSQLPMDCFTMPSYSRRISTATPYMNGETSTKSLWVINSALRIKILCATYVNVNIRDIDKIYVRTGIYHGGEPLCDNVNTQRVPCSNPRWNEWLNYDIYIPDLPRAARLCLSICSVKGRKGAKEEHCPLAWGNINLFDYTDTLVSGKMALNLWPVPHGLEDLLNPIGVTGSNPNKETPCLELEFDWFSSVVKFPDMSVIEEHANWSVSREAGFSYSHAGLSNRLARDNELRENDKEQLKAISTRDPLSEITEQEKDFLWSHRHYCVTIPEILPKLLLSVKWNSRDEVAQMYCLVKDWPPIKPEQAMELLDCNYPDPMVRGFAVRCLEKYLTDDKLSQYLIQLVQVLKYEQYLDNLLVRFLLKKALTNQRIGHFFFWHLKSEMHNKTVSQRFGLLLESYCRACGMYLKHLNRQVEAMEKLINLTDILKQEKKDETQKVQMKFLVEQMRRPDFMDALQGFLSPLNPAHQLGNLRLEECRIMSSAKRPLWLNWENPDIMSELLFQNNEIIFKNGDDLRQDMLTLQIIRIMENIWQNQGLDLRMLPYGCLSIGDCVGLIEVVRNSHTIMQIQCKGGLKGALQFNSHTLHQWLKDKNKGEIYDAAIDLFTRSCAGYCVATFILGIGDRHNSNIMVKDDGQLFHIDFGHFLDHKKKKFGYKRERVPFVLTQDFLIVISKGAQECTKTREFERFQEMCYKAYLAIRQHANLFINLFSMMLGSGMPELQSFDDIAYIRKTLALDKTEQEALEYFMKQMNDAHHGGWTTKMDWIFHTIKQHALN", "assay": "Inhibition of PI3Kalpha Efficacy assay", "description": "(§1) The ADP-Glo™ kinase assay was used to assess the inhibition of PI3Kα with our compounds. The utilized proteins and assay reagents were obtained from the ADP-Glo™ Kinase Assay Kit (Promega). Initially, a 2 mM stock solution of the test compound (dissolved in DMSO) was serially diluted in five-fold concentrations using DMSO to obtain eight working solutions 1 (200′). Subsequently, each of the eight working solutions 1 was further diluted in a 20-fold gradient by adding 5 μL into 95 μL of ddH2O, resulting in eight working solutions 2 (10×). In a 384-well white flat-bottom plate, 2 μL of 2.5×PI3Kα kinase solution and 1 μL of working solution 2 (10×) were added to each well and mixed, followed by a 15-minute incubation at room temperature (RT). Subsequently, 2 μL of 2.5×PI and ATP solution mixture were added to each well, mixed, and incubated at RT for 60 minutes. Then, 5 μL of ADP-Glo (containing 10 mM MgCl2) reagent was added to each well, mixed, and incubated at RT for 40 minutes.Finally, 10 μL of the Kinase Detection Reagent was added to each well, mixed, and incubated at RT for 40 minutes. Luminescence values were recorded using a multi-mode microplate reader with luminescence channel settings, and the inhibitory rate was calculated using the following formula:%Inhibitionrate=[(Negative-testcompound)/(Negative-Blank)]*100Data were analyzed using GraphPad Prism with log(inhibitor) vs. response—Variable Slope(four parameters) fitting calculations for IC5 values."}, "[3]": {"biological_target": "T1, Phosphatidylinositol 4,5-bisphosphate 3-kinase catalytic subunit delta isoform (Homo sapiens, UniProt O00329)", "T1 sequence (O00329 whole entry)": "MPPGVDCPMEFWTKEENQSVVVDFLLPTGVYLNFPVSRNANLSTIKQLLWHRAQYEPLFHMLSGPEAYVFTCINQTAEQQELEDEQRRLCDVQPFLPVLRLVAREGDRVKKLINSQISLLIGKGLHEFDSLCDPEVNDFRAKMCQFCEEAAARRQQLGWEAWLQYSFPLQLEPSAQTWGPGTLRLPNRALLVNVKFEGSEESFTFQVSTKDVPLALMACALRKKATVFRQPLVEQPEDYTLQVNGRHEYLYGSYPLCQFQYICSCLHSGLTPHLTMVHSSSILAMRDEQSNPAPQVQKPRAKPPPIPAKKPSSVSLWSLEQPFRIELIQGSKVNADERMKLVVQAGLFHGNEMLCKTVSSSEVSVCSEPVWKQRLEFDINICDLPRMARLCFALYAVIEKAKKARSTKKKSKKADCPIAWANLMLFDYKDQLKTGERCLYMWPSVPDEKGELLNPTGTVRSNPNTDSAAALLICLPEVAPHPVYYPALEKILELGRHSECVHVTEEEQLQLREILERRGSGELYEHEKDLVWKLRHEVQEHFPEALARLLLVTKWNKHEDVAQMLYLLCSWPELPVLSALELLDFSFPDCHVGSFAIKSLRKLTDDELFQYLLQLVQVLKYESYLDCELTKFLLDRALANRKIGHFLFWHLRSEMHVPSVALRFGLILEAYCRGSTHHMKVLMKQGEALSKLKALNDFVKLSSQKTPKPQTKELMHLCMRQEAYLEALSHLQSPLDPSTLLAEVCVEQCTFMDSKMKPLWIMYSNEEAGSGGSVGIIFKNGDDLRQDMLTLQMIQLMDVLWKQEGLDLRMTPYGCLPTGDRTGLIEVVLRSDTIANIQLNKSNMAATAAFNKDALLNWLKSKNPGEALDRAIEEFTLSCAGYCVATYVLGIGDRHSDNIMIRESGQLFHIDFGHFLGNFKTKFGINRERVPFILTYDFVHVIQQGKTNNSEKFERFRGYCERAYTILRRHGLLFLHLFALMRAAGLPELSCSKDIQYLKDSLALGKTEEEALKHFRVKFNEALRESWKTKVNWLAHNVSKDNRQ", "assay": "Inhibition of PI3Kdelta Efficacy Assay", "description": "as §1, with “PI3Kδ” for “PI3Kα”, “(200×)” for “(200′).”, “2.5×PI3Kδ” for “2.5×PI3Kα”, “minutes. Finally,” for “minutes.Finally,”, “IC50” for “IC5”"}}, "data": [{"smiles": "COc1ncc(-c2ccc3ncnc(N4CCN(C(=O)/C=C/C(C)=O)C[C@@H]4C)c3c2)cc1NS(=O)(=O)c1ccc(F)cc1F", "note": "[US20250145589, Example 8]", "values": [{"measurement": "IC50", "setting": "[1]", "value": 222, "unit": "nM"}, {"measurement": "IC50", "setting": "[2]", "value": 0.34, "unit": "nM"}, {"measurement": "IC50", "setting": "[3]", "value": 17.9, "unit": "nM"}]}, {"smiles": "COc1ncc(-c2ccc3ncnc(N4CCC5(CN(C(=O)/C=C/C(C)=O)C5)C4)c3c2)cc1NS(=O)(=O)c1ccc(F)cc1F", "note": "[US20250145589, Example 13]", "values": [{"measurement": "IC50", "setting": "[1]", "value": 96.7, "unit": "nM"}, {"measurement": "IC50", "setting": "[2]", "value": 11.3, "unit": "nM"}, {"measurement": "IC50", "setting": "[3]", "value": 85.3, "unit": "nM"}]}, {"smiles": "C=C(F)C(=O)N1CCN(c2ncnc3ccc(-c4cnc(OC)c(N(C)S(=O)(=O)c5ccc(F)cc5F)c4)cc23)CC1", "note": "[US20250145589, Example 79]", "values": [{"measurement": "IC50", "setting": "[3]", "value": 903, "unit": "nM"}]}, {"smiles": "C=CS(=O)(=O)N1CCN(c2ncnc3ccc(-c4cnc(OC)c(NS(=O)(=O)c5ccc(F)cc5F)c4)cc23)CC1", "note": "[US20250145589, Example 207]", "values": [{"measurement": "IC50", "setting": "[2]", "value": 3.2, "unit": "nM"}]}, {"smiles": "COc1ncc(-c2ccc3ncnc(N4CCN(C(=O)/C=C/C(C)=O)CC4)c3n2)cc1NS(=O)(=O)c1cnccc1C", "note": "[US20250145589, Example 223]", "values": [{"measurement": "IC50", "setting": "[1]", "value": 210, "unit": "nM"}, {"measurement": "IC50", "setting": "[2]", "value": 1.4, "unit": "nM"}]}, {"smiles": "COc1ncc(-c2ccc3ncnc(N4CCN(C(=O)/C=C/C(C)=O)CC4)c3c2)cc1SS(=O)(=O)c1ccc(F)cc1F", "note": "[US20250145589, Example 246]", "values": [{"measurement": "IC50", "setting": "[1]", "value": 159, "unit": "nM"}, {"measurement": "IC50", "setting": "[2]", "value": 2.24, "unit": "nM"}, {"measurement": "IC50", "setting": "[3]", "value": 13.8, "unit": "nM"}]}]}
